# Source: patent publication US9662323B2, “Compounds having muscarinic receptor antagonist and beta2 adrenergic receptor agonist activity” (CHIESI FARMACEUTICI S.p.A., priority 2015, dated 2017)
# Columns and labels:
# [1] = biological target: T1, Human M3 receptor (Homo sapiens, UniProt P20309); assay: M3 Receptor Radioligand Binding Assay; details: human M3 receptor membranes, [3H]-N-methyl scopolamine; read-out: M3 binding affinity (Ki class)
# T1 construct: purchased Perkin Elmer
# Procedure: Biological Characterization M3 Receptor Radioligand Binding Assay
# The assay was carried out in 96-well polypropylene plates in a volume of 250 ul. […] The final assay concentration of DMSO was 0.5% (v/v). The plates were sealed and incubated for 2 h at room temperature on an orbital shaker (slow speed). Membranes were harvested onto 96-well unifilter GF/C filter plates pre-treated with 0.5% polyethyleneimine (v/v), using a filter manifold, washed four times with 200 ul of assay buffer. The plates were dried before addition of 50 μl of microscint-0, sealed then read in a Trilux Microbeta scintillation counter.
# [2] = biological target: T2, Human β2 adrenoceptor (Homo sapiens, UniProt P07550); assay: β2 Adrenoceptor Radioligand Binding Assay; details: human β2 adrenoceptor membranes, 125-I Cyanopindolol; read-out: B2 binding affinity (Ki class)
# T2 construct: purchased Perkin Elmer
# Procedure: β2 Adrenoceptor Radioligand Binding Assay
# The assay was carried out in 96-well polypropylene plates in a volume of 200 ul. The assay buffer used was 25 mM HEPES, 0.5% BSA (w/v), 1 mM EDTA, 0.02% ascorbic acid (v/v), (pH 7.4). The final assay concentration of DMSO was 0.5% (v/v). The plates were sealed and incubated for 1 h at room temperature on an orbital shaker (slow speed). Membranes were harvested onto 96-well unifilter GF/C filter plates pre-treated with 0.5% polyethyleneimine (v/v), using a filter manifold, washed six times with 200 ul of wash buffer containing 10 mM HEPES and 500 mM NaCl. The plates were dried before addition of 50 μl of microscint-0, sealed then read in a Trilux Microbeta scintillation counter. IC50 values are determined from competition curves using a non-linear curve fitting program. Ki values were calculated from IC50 values by the Cheng and Prusoff equation.
# T1 sequence (P20309 whole entry): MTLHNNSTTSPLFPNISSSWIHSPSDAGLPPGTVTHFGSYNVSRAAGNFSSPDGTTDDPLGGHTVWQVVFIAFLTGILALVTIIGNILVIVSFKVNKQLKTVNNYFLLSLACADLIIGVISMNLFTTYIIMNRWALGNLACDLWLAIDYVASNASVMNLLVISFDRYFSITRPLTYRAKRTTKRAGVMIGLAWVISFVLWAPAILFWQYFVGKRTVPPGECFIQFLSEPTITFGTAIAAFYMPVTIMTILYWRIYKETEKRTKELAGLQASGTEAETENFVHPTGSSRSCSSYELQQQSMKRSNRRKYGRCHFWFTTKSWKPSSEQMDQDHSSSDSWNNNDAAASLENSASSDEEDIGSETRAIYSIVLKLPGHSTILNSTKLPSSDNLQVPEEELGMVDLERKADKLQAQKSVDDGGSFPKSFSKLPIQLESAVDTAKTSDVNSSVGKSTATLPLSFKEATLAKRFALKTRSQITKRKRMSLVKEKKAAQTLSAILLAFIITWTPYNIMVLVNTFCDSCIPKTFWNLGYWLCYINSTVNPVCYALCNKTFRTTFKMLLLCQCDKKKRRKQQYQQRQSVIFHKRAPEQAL
# T2 sequence (P07550 whole entry): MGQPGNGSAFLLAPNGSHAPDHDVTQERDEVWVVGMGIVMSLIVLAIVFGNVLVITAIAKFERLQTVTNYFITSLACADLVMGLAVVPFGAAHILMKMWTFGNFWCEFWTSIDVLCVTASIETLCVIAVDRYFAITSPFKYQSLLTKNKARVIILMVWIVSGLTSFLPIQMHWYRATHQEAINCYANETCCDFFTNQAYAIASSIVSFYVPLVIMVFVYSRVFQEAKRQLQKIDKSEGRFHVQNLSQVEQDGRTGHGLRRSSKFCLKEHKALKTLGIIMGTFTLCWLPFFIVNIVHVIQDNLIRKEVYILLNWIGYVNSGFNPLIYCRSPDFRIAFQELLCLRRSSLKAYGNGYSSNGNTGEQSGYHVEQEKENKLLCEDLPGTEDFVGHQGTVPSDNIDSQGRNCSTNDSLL
compound,measurement,setting,value
"O=C(NCCCNC[C@H](O)c1ccc(O)c2[nH]c(=O)ccc12)c1ccc(COc2ccc(C(=O)N3CC(C(=O)O[C@H]4CN5CCC4CC5)(c4ccccc4)C3)cc2)cc1 [Compound 19A, (R)-Quinuclidin-3-yl 1-(4-((4-((3-(((R)-2-hydroxy-2-(8-hydroxy-2-oxo-1,2-dihydroquinolin-5-yl)ethyl)amino)propyl)carbamoyl)benzyl)oxy)benzoyl)-3-phenylazetidine-3-carboxylate]",Ki,[1],< 1 nM
same,Ki,[2],< 1 nM
"O=C(c1ccc(CCNC[C@H](O)c2ccc(O)c3[nH]c(=O)ccc23)cc1)N1CCC(C(=O)O[C@H]2CN3CCC2CC3)(c2ccccc2)CC1 [Compound 20, (R)-Quinuclidin-3-yl 1-(4-(2-(((R)-2-hydroxy-2-(8-hydroxy-2-oxo-1,2-dihydroquinolin-5-yl)ethyl)amino)ethyl)benzoyl)-4-phenylpiperidine-4-carboxylate]",Ki,[1],> 10 nM
same,Ki,[2],< 1 nM
"COc1cc(CNC(=O)c2ccc(C(=O)N3CC(C(=O)O[C@H]4CN5CCC4CC5)(c4ccccc4)C3)cc2)ccc1CNC[C@H](O)c1ccc(O)c2[nH]c(=O)ccc12 [Compound 20A, (R)-Quinuclidin-3-yl 1-(4-((4-((((R)-2-hydroxy-2-(8-hydroxy-2-oxo-1,2-dihydroquinolin-5-yl)ethyl)amino)methyl)-3-methoxybenzyl)carbamoyl)benzoyl)-3-phenylazetidine-3-carboxylate]",Ki,[1],< 1 nM
same,Ki,[2],< 1 nM
"O=C(NCCCCNC[C@H](O)c1ccc(O)c2[nH]c(=O)ccc12)c1ccc(C(=O)N2CCC(C(=O)O[C@H]3CN4CCC3CC4)(c3ccccc3)CC2)s1 [Compound 21, (R)-Quinuclidin-3-yl 1-(5-((4-(((R)-2-hydroxy-2-(8-hydroxy-2-oxo-1,2-dihydroquinolin-5-yl)ethyl)amino)butyl)carbamoyl)thiophene-2-carbonyl)-4-phenylpiperidine-4-carboxylate]",Ki,[1],1 to 10 nM
same,Ki,[2],< 1 nM
"O=C(c1ccc(OCc2cccc(OCCCCNC[C@H](O)c3ccc(O)c4[nH]c(=O)ccc34)c2)cc1)N1CCC(C(=O)O[C@H]2CN3CCC2CC3)(c2ccccc2)CC1 [Compound 22, (R)-Quinuclidin-3-yl 1-(4-((3-(4-(((R)-2-hydroxy-2-(8-hydroxy-2-oxo-1,2-dihydroquinolin-5-yl)ethyl)amino)butoxy)benzyl)oxy)benzoyl)-4-phenylpiperidine-4-carboxylate]",Ki,[1],1 to 10 nM
same,Ki,[2],< 1 nM
"O=C(NCc1ccc(CNC[C@H](O)c2ccc(O)c3[nH]c(=O)ccc23)cc1)c1ccc(C(=O)N2CCC(C(=O)O[C@H]3CN4CCC3CC4)(c3ccccc3)CC2)cc1 [Compound 23, (R)-Quinuclidin-3-yl 1-(4-((4-((((R)-2-hydroxy-2-(8-hydroxy-2-oxo-1,2-dihydroquinolin-5-yl)ethyl)amino)methyl)benzyl)carbamoyl)benzoyl)-4-phenylpiperidine-4-carboxylate]",Ki,[1],< 1 nM
same,Ki,[2],1 to 10 nM
"O=C(c1ccc(OCc2ccc(CNC[C@H](O)c3ccc(O)c4[nH]c(=O)ccc34)cc2)cc1)N1CCC(C(=O)O[C@H]2CN3CCC2CC3)(c2ccccc2)CC1 [Compound 24, (R)-Quinuclidin-3-yl 1-(4-((4-((((R)-2-hydroxy-2-(8-hydroxy-2-oxo-1,2-dihydroquinolin-5-yl)ethyl)amino)methyl)benzyl)oxy)benzoyl)-4-phenylpiperidine-4-carboxylate]",Ki,[1],< 1 nM
same,Ki,[2],< 1 nM
"CCN(CCCNC[C@H](O)c1ccc(O)c2[nH]c(=O)ccc12)C(=O)c1ccc(C(=O)N2CCC(C(=O)O[C@H]3CN4CCC3CC4)(c3ccccc3)CC2)cc1 [Compound 25, (R)-Quinuclidin-3-yl 1-(4-(ethyl(3-(((R)-2-hydroxy-2-(8-hydroxy-2-oxo-1,2-dihydroquinolin-5-yl)ethyl)amino)propyl)carbamoyl)benzoyl)-4-phenylpiperidine-4-carboxylate]",Ki,[1],1 to 10 nM
same,Ki,[2],1 to 10 nM
"O=C(c1ccc(OCc2ccc(CCNC[C@H](O)c3ccc(O)c4[nH]c(=O)ccc34)cc2)cc1)N1CCC(C(=O)O[C@H]2CN3CCC2CC3)(c2ccccc2)CC1 [Compound 26, (R)-Quinuclidin-3-yl 1-(4-((4-(2-(((R)-2-hydroxy-2-(8-hydroxy-2-oxo-1,2-dihydroquinolin-5-yl)ethyl)amino)ethyl)benzyl)oxy)benzoyl)-4-phenylpiperidine-4-carboxylate]",Ki,[1],< 1 nM
same,Ki,[2],< 1 nM
"CN(CCCNC[C@H](O)c1ccc(O)c2[nH]c(=O)ccc12)C(=O)c1ccc(C(=O)N2CCC(C(=O)O[C@H]3CN4CCC3CC4)(c3ccccc3)CC2)s1 [Compound 27, (R)-Quinuclidin-3-yl 1-(5-((3-(((R)-2-hydroxy-2-(8-hydroxy-2-oxo-1,2-dihydroquinolin-5-yl)ethyl)amino)propyl)(methyl)carbamoyl)thiophene-2-carbonyl)-4-phenylpiperidine-4-carboxylate]",Ki,[1],1 to 10 nM
same,Ki,[2],< 1 nM
"O=C(c1ccc(C(=O)N(CCCNC[C@H](O)c2ccc(O)c3[nH]c(=O)ccc23)Cc2ccccc2)s1)N1CCC(C(=O)O[C@H]2CN3CCC2CC3)(c2ccccc2)CC1 [Compound 28, (R)-Quinuclidin-3-yl 1-(5-(benzyl(3-(((R)-2-hydroxy-2-(8-hydroxy-2-oxo-1,2-dihydroquinolin-5-yl)ethyl)amino)propyl)carbamoyl)thiophene-2-carbonyl)-4-phenylpiperidine-4-carboxylate]",Ki,[1],1 to 10 nM
same,Ki,[2],< 1 nM
"CCN(CCCNC[C@H](O)c1ccc(O)c2[nH]c(=O)ccc12)C(=O)c1ccc(C(=O)N2CCC(C(=O)O[C@H]3CN4CCC3CC4)(c3ccccc3)CC2)s1 [Compound 29, (R)-Quinuclidin-3-yl 1-(5-(ethyl(3-(((R)-2-hydroxy-2-(8-hydroxy-2-oxo-1,2-dihydroquinolin-5-yl)ethyl)amino)propyl)carbamoyl)thiophene-2-carbonyl)-4-phenylpiperidine-4-carboxylate]",Ki,[1],1 to 10 nM
same,Ki,[2],< 1 nM
"O=C(Cc1ccc(OCCCCNC[C@H](O)c2ccc(O)c3[nH]c(=O)ccc23)cc1)N1CCC(C(=O)O[C@H]2CN3CCC2CC3)(c2ccccc2)CC1 [Compound 30, (R)-Quinuclidin-3-yl 1-(2-(4-(4-(((R)-2-hydroxy-2-(8-hydroxy-2-oxo-1,2-dihydroquinolin-5-yl)ethyl)amino)butoxy)phenyl)acetyl)-4-phenylpiperidine-4-carboxylate]",Ki,[1],1 to 10 nM
same,Ki,[2],< 1 nM
"O=C(NCCC(=O)N1CCC(C(=O)O[C@H]2CN3CCC2CC3)(c2ccccc2)CC1)c1ccc(CNC[C@H](O)c2ccc(O)c3[nH]c(=O)ccc23)cc1 [Compound 31, (R)-Quinuclidin-3-yl 1-(3-(4-((((R)-2-hydroxy-2-(8-hydroxy-2-oxo-1,2-dihydroquinolin-5-yl)ethyl)amino)methyl)benzamido)propanoyl)-4-phenylpiperidine-4-carboxylate]",Ki,[1],1 to 10 nM
same,Ki,[2],< 1 nM
"O=C(CCc1ccc(OCCCCNC[C@H](O)c2ccc(O)c3[nH]c(=O)ccc23)cc1)N1CCC(C(=O)O[C@H]2CN3CCC2CC3)(c2ccccc2)CC1 [Compound 32, (R)-Quinuclidin-3-yl 1-(3-(4-(4-(((R)-2-hydroxy-2-(8-hydroxy-2-oxo-1,2-dihydroquinolin-5-yl)ethyl)amino)butoxy)phenyl)propanoyl)-4-phenylpiperidine-4-carboxylate]",Ki,[1],< 1 nM
same,Ki,[2],< 1 nM
